# Data reported in patent US5834463A, “Condensed heterocyclic compounds, their production and use” (Takeda Chemical Industries, Ltd., priority 1994, dated 1998).
# Target: T1, human GnRH receptor (Homo sapiens, UniProt P30968)
# T1 construct: expressed in transfected cells; host or cells: CHO (Chinese Hamster Ovary) cells, membrane fraction
# T1 sequence (P30968 1-328): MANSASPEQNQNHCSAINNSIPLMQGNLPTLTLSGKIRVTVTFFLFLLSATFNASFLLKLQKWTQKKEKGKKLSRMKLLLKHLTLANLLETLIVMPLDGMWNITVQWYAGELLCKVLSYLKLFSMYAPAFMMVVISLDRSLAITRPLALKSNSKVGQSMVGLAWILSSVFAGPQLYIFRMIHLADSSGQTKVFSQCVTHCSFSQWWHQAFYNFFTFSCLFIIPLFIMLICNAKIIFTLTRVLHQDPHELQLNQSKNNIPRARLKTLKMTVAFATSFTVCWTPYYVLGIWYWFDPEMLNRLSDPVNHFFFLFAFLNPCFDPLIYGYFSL
# Experiment: Test for inhibition of ^125 I-leuprorelin binding to human GnRH receptor
# Settings: membrane fraction of CHO cells expressing human GnRH receptors, 25° C., 60 minutes, read-out: Binding Inhibitory Activity (IC50, μM) for human GnRH receptor
# Experimental: (A) Preparation of ^125 I-leuprorelin
# Ten μl of a 3×10^-4 M aqueous solution of leuprorelin and 10μl of 0.01 mg/ml lactoperoxidase in 0.1M Hepes buffer (pH7.4) were put in a tube, to which was added 10 μl of an Na^125 I solution (37 MBq). The mixture was stirred, to which was added 10 μl of 0.001% H2 O2, followed by allowing the reaction to proceed for 20 minutes at room temperature. To the reaction mixture was added 700 μl of a 0.05% TFA solution to stop the reaction. The product of was purified by means of a reverse-phase HPLC. Conditions of HPLC were as follows:
# (D) Preparation of membrane fraction of CHO (Chinese Hamster Ovary) cells containing human GnRH receptors
# CHO cells (10^9) expressing human GnRH receptors were suspended in a phosphate-buffered saline supplemented with 5 mM EDTA. The suspension was subjected to centrifugal separation for 5 minutes at 100×g. To the pellet of cells was added 10 ml of a homogenate buffer for cells (10 mM NaHCO3, 5 mM EDTA, pH 7.5), which was homogenated by using a Polytron homogenizer. Centrifugal separation was conducted for 15 minutes at 400×g. The supernatant was taken into an ultracentrifugal tube, which was subjected to centrifuge for one hour at 100,000×g to give precipitate of the membrane fraction. The precipitate was suspended in 2 ml of the assay buffer, which was centrifuged for one hour at 100,000×g. The membrane fraction recovered as precipitate was again suspended in 20 ml of the assay buffer, which was distributed to vials and stored at -80° C. until used.
# (E) Determination of inhibitory rate of ^125 I-leuprorelin binding
# In the cases of using rat and human pituitary membrane fractions prepared in (B) and (D), they were respectively diluted with the assay buffer to 200 μg/ml and 188 μl each was distributed to tubes. In the case of using bovine pituitary membrane fraction prepared in (C), it was diluted with the assay buffer to 750 μg/ml and 188 μl each was distributed into tubes. In the case where the membrane fraction of anterior lobes of rat pituitary gland was used, 2 μl of a 0.1 mM compound dissolved in 60% DMSO (dimethylsulfoxide) and 10 μl of 38 nM ^125 I-leuprorelin were added thereto simultaneously. In the case where the membrane fraction of anterior lobes of bovine pituitary gland and the membrane fraction derived from the CHO cells expressing human GnRH receptors were used, 2 μl of a 2 mM compound dissolved in 60% DMSO and 10 μl of 38 nM ^125 I-leuproprelin were added simultaneously. For determining the maximum binding amount, a solution for reaction supplemented with 2 μl of 60% DMSO and 10 μl of 38 nM ^125 I-leuprorelin was prepared. And, for determining the amount of non-specific binding, a solution for reaction supplemented with 2 μl of 100 μM leuprorelin dissolved in 60% DMSO and 10 μl of 38 nM ^125 I-leuprorelin were also prepared simultaneously.
# In the cases where membrane fractions of anterior lobes of rat and bovine pituitary were used, reaction was allowed to proceed at 4° C. for 90 minutes, while in the case where the membrane fraction derived from the CHO cells expressing human GnRH receptor was used, reaction was allowed to proceed at 25° C. for 60 minutes. The reaction mixtures were respectively subjected to filtration under sucking with Whatman glass filter (GF-F) processed with polyethyleneimine. After completing the filtration, radioactivity of the ^125 I-leuprorelin remaining on the filter paper was measured with a γ-counter.
# By calculation of (TB-SB)/(TB-NSB)×100 (SB: radioactivity obtained when a compound was added, TB: radioactivity for the maximum binding, NSB: radioactivity for the non-specific binding), the binding inhibitory rate of each test compound was determined. Besides, the inhibitory rates were determined by changing the concentrations of test compounds, and the concentration of a test compound inhibiting the specific binding by 50% (IC50 value) was calculated by way of Hill plot.
structure (smiles),measurement,value
O=C1C2CCCCC2C(=O)N1CC(=O)N1c2ccccc2N(Cc2ccccc2)C(=O)C2CCCC21 (centres unmarked) [compound 174],IC50,5 µM
O=C1c2ccccc2C(=O)N1CC(=O)N1c2ccccc2N(Cc2ccccc2)C(=O)[C@H]2CCCC[C@H]21 (relative stereo) [compound 168],IC50,3 µM
CSc1ccc(CN2C(=O)[C@H]3CCC[C@H]3N(C(=O)CN3C(=O)c4ccccc4C3=O)c3ccccc32)cc1 (relative stereo) [compound 212],IC50,1 µM
O=C1C2=C(CCCC2)C(=O)N1CC(=O)N1c2ccccc2N(Cc2ccc3ccccc3c2)C(=O)[C@H]2CCC[C@H]21 (relative stereo) [compound 171],IC50,0.3 µM
COc1ccc(CN2C(=O)C3CCCC3N(C(=O)CN3C(=O)c4ccccc4C3=O)c3ccccc32)cc1 (centres unmarked) [compound 112],IC50,2 µM
O=C1c2ccccc2C(=O)N1CC(=O)N1c2ccccc2N(Cc2cccnc2)C(=O)[C@H]2CCC[C@H]21 (relative stereo) [compound 119],IC50,10 µM
O=C1c2ccccc2C(=O)N1CC(=O)N1c2ccccc2N(Cc2ccc(F)cc2)C(=O)[C@H]2CCC[C@H]21 (relative stereo) [compound 191],IC50,2 µM
O=C1C2=C(CCC2)C(=O)N1CC(=O)N1c2ccccc2N(Cc2ccccc2)C(=O)[C@H]2CCC[C@H]21 (relative stereo) [compound 176],IC50,2 µM
O=C1[C@H]2CCC[C@H]2N(C(=O)CNCc2ccccc2)c2ccccc2N1Cc1ccccc1 (relative stereo) [compound 138],IC50,14 µM
O=C1[C@H]2CC=CC[C@H]2C(=O)N1CC(=O)N1c2ccccc2N(Cc2ccccc2)C(=O)[C@H]2CCC[C@H]21 (relative stereo) [compound 80],IC50,9 µM
O=C1C2=C(CCCC2)C(=O)N1CC(=O)N1c2ccccc2N(Cc2cccc3ccccc23)C(=O)[C@H]2CCC[C@H]21 (relative stereo) [compound 170],IC50,0.6 µM
O=C1c2ccccc2C(=O)N1CC(=O)N1c2ccccc2N(Cc2cccc3ccccc23)C(=O)[C@H]2CCC[C@H]21 (relative stereo) [compound 113],IC50,1 µM
O=C1Cc2ccccc2N1CC(=O)N1c2ccccc2N(Cc2ccccc2)C(=O)[C@H]2CCC[C@H]21 (relative stereo) [compound 136],IC50,15 µM
O=C1c2ccccc2C(O)N1CC(=O)N1c2ccccc2N(Cc2ccccc2)C[C@H]2CCC[C@H]21 (some centres unmarked) [compound 66],IC50,8 µM
O=C1c2ccc(F)cc2C(=O)N1CC(=O)N1c2ccccc2N(Cc2ccccc2)C(=O)[C@H]2CCC[C@H]21 (relative stereo) [compound 70],IC50,2 µM
O=C1CC(/C=C/c2ccccc2)Nc2ccccc2N1Cc1ccccc1 (centres unmarked) [compound 36],IC50,2 µM
O=C1c2ccccc2C(=O)N1CC(=O)N1c2ccccc2N(Cc2ccncc2)C(=O)[C@H]2CCC[C@H]21 (relative stereo) [compound 120],IC50,4 µM
O=C1c2ccccc2C(=O)N1CC(=O)N1c2ccccc2N(Cc2ccc3ccccc3n2)C(=O)[C@H]2CCC[C@H]21 (relative stereo) [compound 184],IC50,0.8 µM
O=C(c1ccccc1)N(CC(=O)N1c2ccccc2N(Cc2ccccc2)C(=O)[C@H]2CCC[C@H]21)Cc1ccccc1 (relative stereo) [compound 141],IC50,14 µM
COc1cc(OC)cc(C(=O)NCC(=O)N2c3ccccc3N(Cc3ccccc3)C(=O)[C@H]3CCC[C@H]32)c1 (relative stereo) [compound 87],IC50,16 µM
CN(CC(=O)N1c2ccccc2N(Cc2ccccc2)C(=O)[C@H]2CCC[C@H]21)Cc1ccccc1 (relative stereo) [compound 139],IC50,11 µM
O=C1[C@H]2CCC[C@H]2N(C(=O)CN2C(=O)c3ccccc3C2O)c2ccccc2N1Cc1ccccc1 (some centres unmarked) [compound 65],IC50,14 µM
O=C1c2ccccc2C(=O)N1CC(=O)N1c2ccccc2N(c2ccccc2)C(=O)C2CCCC21 (centres unmarked) [compound 121],IC50,11 µM
O=C1c2ccccc2C(=O)N1CC(=O)N1c2ccccc2N(Cc2ccc(O)cc2)C(=O)[C@H]2CCC[C@H]21 (relative stereo) [compound 214],IC50,1 µM
Cc1ccc2c(c1)C(=O)N(CC(=O)N1c3ccccc3N(Cc3ccccc3)C(=O)[C@H]3CCC[C@H]31)C2=O (relative stereo) [compound 71],IC50,9 µM
O=C1c2ccccc2C(=O)N1CC(=O)N1c2ccccc2N(Cc2ccccc2F)C(=O)[C@H]2CCC[C@H]21 (relative stereo) [compound 194],IC50,3 µM
O=C1Cc2ccccc2C(=O)N1CC(=O)N1c2ccccc2N(Cc2ccccc2)C(=O)[C@H]2CCC[C@H]21 (relative stereo) [compound 77],IC50,5 µM
O=C1c2ccc([N+](=O)[O-])cc2C(=O)N1CC(=O)N1c2ccccc2N(Cc2ccccc2)C(=O)[C@H]2CCC[C@H]21 (relative stereo) [compound 49],IC50,2 µM
O=C1c2ccccc2C(=O)N1CC(=O)N1c2ccccc2N(Cc2ccc([N+](=O)[O-])cc2)C(=O)[C@H]2CCC[C@H]21 (relative stereo) [compound 195],IC50,0.5 µM
O=C1c2ccccc2C(=O)N1CC(=O)N1c2ccccc2N(Cc2cccc(O)c2)C(=O)[C@H]2CCC[C@H]21 (relative stereo) [compound 215],IC50,2 µM
CC(=O)N(CC(=O)N1c2ccccc2N(Cc2ccccc2)C(=O)[C@H]2CCC[C@H]21)C(=O)c1ccccc1 (relative stereo) [compound 109],IC50,6 µM
COc1cccc(CN2C(=O)C3CCCC3N(C(=O)CN3C(=O)c4ccccc4C3=O)c3ccccc32)c1 (centres unmarked) [compound 111],IC50,4 µM
O=C1c2ccccc2C(=O)N1CCCC(=O)N1c2ccccc2N(Cc2ccccc2)C(=O)[C@H]2CCC[C@H]21 (relative stereo) [compound 51],IC50,12 µM
O=C1c2ccccc2C(=O)N1CC(=O)N1c2ccccc2N(Cc2ccccn2)C(=O)[C@H]2CCC[C@H]21 (relative stereo) [compound 118],IC50,2 µM
O=C1C2=C(CCCC2)C(=O)N1CC(=O)N1c2ccccc2N(Cc2ccccc2)C(=O)C2CCCC21 (centres unmarked) [compound 76],IC50,1 µM
O=C1c2cccc(O)c2C(=O)N1CC(=O)N1c2ccccc2N(Cc2ccccc2)C(=O)[C@H]2CCC[C@H]21 (relative stereo) [compound 73],IC50,9 µM
O=C1c2ccccc2C(=O)N1CC(=O)N1c2ccccc2N(Cc2cccc([N+](=O)[O-])c2)C(=O)[C@H]2CCC[C@H]21 (relative stereo) [compound 209],IC50,2 µM
O=C1c2cccnc2C(=O)N1CC(=O)N1c2ccccc2N(Cc2ccccc2)C(=O)[C@H]2CCC[C@H]21 (relative stereo) [compound 78],IC50,5 µM
O=C1c2ccccc2C(=O)N1CCC(=O)N1c2ccccc2N(Cc2ccccc2)C(=O)[C@H]2CCC[C@H]21 (relative stereo) [compound 50],IC50,24 µM
CC1=C(C)C(=O)N(CC(=O)N2c3ccccc3N(Cc3ccccc3)C(=O)[C@H]3CCC[C@H]32)C1=O (relative stereo) [compound 173],IC50,7 µM
O=C1c2ccccc2C(=O)N1CC(=O)N1c2ccccc2N(Cc2ccc(Cl)cc2)C(=O)[C@H]2CCC[C@H]21 (relative stereo) [compound 169],IC50,2 µM
